How the values were obtained:
JAK3 = JAK3 (Homo sapiens (Human), UniProt P52333); assay: INVITROGEN Select Screening in vitro kinase activity assay; assay type: biochemical; settings: enzymatic
Description: The in vitro activity of the compounds described herein in inhibiting JAK3 and other kinases were obtained using an INVITROGEN Select Screening assay as known in the art.

Ba/F3 JAK3 = assay: Ba/F3 cell proliferation analysis (CellTiter-Glo), JAK3; assay type: cell-based, murine; settings: Ba/F3 cells, 72 hours at 37° C., cell viability
Procedure: (§1) Cell Proliferation Analysis
(§2) CellTiter-Glo® Luminescent cell viability assay (Promega) was used to assess cell survival following treatment with the compounds described herein. Cells were seeded into 384 well plates with the EL406 Combination Washer Dispenser (BioTek Instruments, Inc.), and the compounds were injected into the cells culture media with the JANUS Automated Workstation (PerkinElmer Inc.). Cells were treated with a series diluted inhibitors (20 to 0.04 μM) for 72 hours at 37° C. Luminescent measurement is performed using the 2104 Envision® Multilabel Reader (PerkinElmer Inc.). The cell lines employed include Ba/F3 (a murine interleukin-3 dependent pro-B cell line), NKL (a Natural Killer Cell Lymphoma (NKCL) cell line), CMK (an Acute Megakaryoblastic Leukemia (AMKL) cell line).

Ba/F3 TYK2 = assay: Ba/F3 cell proliferation analysis (CellTiter-Glo), TYK2; assay type: cell-based, murine; settings: Mus musculus, BaF3; Ba/F3 cells, 72 hours at 37° C., cell viability
Procedure: as §1, §2

[1] = system: NKL (a Natural Killer Cell Lymphoma (NKCL) cell line); assay: Cancer cell line proliferation analysis (CellTiter-Glo), NKL; assay type: cell-based; settings: NKL cells, 72 hours at 37° C., cell viability, read-out: Cancer cell lines IC50 (nM) NKL
Procedure: as §1, §2

[2] = system: CMK (an Acute Megakaryoblastic Leukemia (AMKL) cell line); assay: Cancer cell line proliferation analysis (CellTiter-Glo), CMK; assay type: cell-based; settings: Homo sapiens; CMK cells, 72 hours at 37° C., cell viability; read-out: Cancer cell lines IC50 (nM) CMK
Procedure: as §1, §2

Ba/F3 JAK1 = assay: Ba/F3 cell proliferation analysis (CellTiter-Glo), JAK1; assay type: cell-based, murine; settings: Mus musculus, BaF3; Ba/F3 cells, 72 hours at 37° C., cell viability
Procedure: as §1, §2

Ba/F3 JAK2 = assay: Ba/F3 cell proliferation analysis (CellTiter-Glo), JAK2; assay type: cell-based, murine; settings: Mus musculus, BaF3; Ba/F3 cells, 72 hours at 37° C., cell viability
Procedure: as §1
as §2, with “Luminescent measurement is performed using the 2104 Envision® Multilabel Reader (PerkinElmer Inc.).” left out

Ba/F3 ABL = assay: Ba/F3 cell proliferation analysis (CellTiter-Glo), ABL; assay type: cell-based, murine; settings: Mus musculus, Ba/F3 cells, 72 hours at 37° C., cell viability
Procedure: as §1
as §2, with “Luminescent measurement is performed using the 2104 Envision® Multilabel Reader (PerkinElmer Inc.).” left out

Chain of JAK3 (P52333 whole entry): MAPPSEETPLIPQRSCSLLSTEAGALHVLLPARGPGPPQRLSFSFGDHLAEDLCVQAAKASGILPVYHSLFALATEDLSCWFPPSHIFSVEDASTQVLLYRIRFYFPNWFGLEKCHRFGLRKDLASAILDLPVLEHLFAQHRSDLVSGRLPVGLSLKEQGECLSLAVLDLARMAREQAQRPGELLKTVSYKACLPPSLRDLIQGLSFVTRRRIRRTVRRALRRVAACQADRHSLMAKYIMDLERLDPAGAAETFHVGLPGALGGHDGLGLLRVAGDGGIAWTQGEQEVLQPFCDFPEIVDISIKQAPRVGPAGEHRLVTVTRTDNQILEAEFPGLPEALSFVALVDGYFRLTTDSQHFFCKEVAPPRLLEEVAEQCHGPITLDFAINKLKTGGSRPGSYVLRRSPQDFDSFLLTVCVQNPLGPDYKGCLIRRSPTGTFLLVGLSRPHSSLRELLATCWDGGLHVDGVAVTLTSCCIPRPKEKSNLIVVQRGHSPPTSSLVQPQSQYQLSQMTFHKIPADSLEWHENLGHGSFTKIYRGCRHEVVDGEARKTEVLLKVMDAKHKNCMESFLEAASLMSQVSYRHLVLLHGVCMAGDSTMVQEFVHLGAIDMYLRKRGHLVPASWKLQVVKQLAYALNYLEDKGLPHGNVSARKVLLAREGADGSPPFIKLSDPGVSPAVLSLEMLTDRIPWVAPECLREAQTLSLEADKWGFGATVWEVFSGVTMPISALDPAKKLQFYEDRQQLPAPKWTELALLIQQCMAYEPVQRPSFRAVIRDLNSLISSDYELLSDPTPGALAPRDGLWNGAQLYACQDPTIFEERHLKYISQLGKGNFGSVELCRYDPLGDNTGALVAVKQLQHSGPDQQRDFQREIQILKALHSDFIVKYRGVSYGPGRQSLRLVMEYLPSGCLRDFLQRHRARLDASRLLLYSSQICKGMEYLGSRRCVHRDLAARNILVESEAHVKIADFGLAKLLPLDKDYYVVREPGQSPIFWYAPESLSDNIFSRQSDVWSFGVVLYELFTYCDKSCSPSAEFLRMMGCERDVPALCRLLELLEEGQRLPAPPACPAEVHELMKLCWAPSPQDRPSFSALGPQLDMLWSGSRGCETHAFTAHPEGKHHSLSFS

Row | SMILES | IC50 (JAK3) | IC50 (Ba/F3 JAK3) | IC50 (Ba/F3 JAK3; listed as compound 2) | IC50 (Ba/F3 TYK2) | IC50 [2] | IC50 (Ba/F3 JAK3; Mus musculus, BaF3, 72 h) | IC50 (Ba/F3 JAK1) | IC50 (Ba/F3 JAK2) | IC50 (Ba/F3 ABL; BaF3) | IC50 (Ba/F3 ABL; BaF3, 72 h, heading: Ba/F3 IC50 ABL) | IC50 [1]
1 | C=CC(=O)Nc1cccc(CNc2nc(Nc3ccc(N4CCN(CCCNC(=O)CC5[C@H]6C[C@@H]7C[C@@H](C[C@H]5C7)C6)CC4)cc3OC)ncc2Cl)c1 (stereo partly shown) [Compound 2] | 45 nM | 382 nM | 45 nM | 1820 nM | 273 nM |  |  |  |  |  | 193 nM
2 | C=CC(=O)Nc1cccc(CNc2nc(Nc3ccc(N4CCN(CCCNC(=O)CC5[C@H]6C[C@@H]7C[C@@H](C[C@H]5C7)C6)CC4)cc3)ncc2Cl)c1 (stereo partly shown) [Compound 3] | 12.8 nM |  |  | 542 nM | 490 nM | 72.7 nM | 1120 nM | 1220 nM | 2260 nM |  | 
3 | C=CC(=O)Nc1cccc(CNc2nc(Nc3ccc(N4CCN(CCCCNC(=O)CC5[C@H]6C[C@@H]7C[C@@H](C[C@H]5C7)C6)CC4)cc3)ncc2Cl)c1 (stereo partly shown) [Compound 4] | 7.95 nM |  |  | 372 nM | 38 nM | 64.8 nM | 252 nM |  | 623 nM |  | 

Second part, led by results:

Row | IC50 (JAK3) | IC50 (Ba/F3 JAK3) | IC50 (Ba/F3 JAK3; listed as compound 2) | IC50 (Ba/F3 TYK2) | IC50 [2] | IC50 (Ba/F3 JAK3; Mus musculus, BaF3, 72 h) | IC50 (Ba/F3 JAK1) | IC50 (Ba/F3 JAK2) | IC50 (Ba/F3 ABL; BaF3) | IC50 (Ba/F3 ABL; BaF3, 72 h, heading: Ba/F3 IC50 ABL) | SMILES | IC50 [1]
4 | 4.9 nM |  |  | 676 nM |  | 94 nM | 1110 nM |  |  |  | C=CC(=O)Nc1cccc(CNc2nc(Nc3cnn(CCN4CCN(C(=O)CC5[C@H]6C[C@@H]7C[C@@H](C[C@H]5C7)C6)CC4)c3)ncc2Cl)c1 (stereo partly shown) [Compound 5] | 
5 | 5.9 nM |  |  |  |  | 38 nM | 2080 nM | 3180 nM |  | 3860 nM | C=CC(=O)Nc1cccc(CNc2nc(Nc3cnn(C4CCN(C(=O)CC5[C@H]6C[C@@H]7C[C@@H](C[C@H]5C7)C6)CC4)c3)ncc2Cl)c1 (stereo partly shown) [Compound 6] | 
6 | 6.8 nM |  |  | 794 nM |  | 105 nM | 954 nM | 1440 nM | 2280 nM |  | C=CC(=O)Nc1cccc(CNc2nc(Nc3cnn(C4CCN(CCNC(=O)CC5[C@H]6C[C@@H]7C[C@@H](C[C@H]5C7)C6)CC4)c3)ncc2Cl)c1 (stereo partly shown) [Compound 7] | 

Reference: patent US9862688B2, “Hydrophobically tagged janus kinase inhibitors and uses thereof” (Dana-Farber Cancer Institute, Inc., priority 2014, dated 2018)
